{"source": "paper PMC10603551", "about": "(Oncology Reports, 2023)", "target": "T1, STAT5b (Homo sapiens, UniProt P51692)", "T1 sequence (P51692 1-787)": "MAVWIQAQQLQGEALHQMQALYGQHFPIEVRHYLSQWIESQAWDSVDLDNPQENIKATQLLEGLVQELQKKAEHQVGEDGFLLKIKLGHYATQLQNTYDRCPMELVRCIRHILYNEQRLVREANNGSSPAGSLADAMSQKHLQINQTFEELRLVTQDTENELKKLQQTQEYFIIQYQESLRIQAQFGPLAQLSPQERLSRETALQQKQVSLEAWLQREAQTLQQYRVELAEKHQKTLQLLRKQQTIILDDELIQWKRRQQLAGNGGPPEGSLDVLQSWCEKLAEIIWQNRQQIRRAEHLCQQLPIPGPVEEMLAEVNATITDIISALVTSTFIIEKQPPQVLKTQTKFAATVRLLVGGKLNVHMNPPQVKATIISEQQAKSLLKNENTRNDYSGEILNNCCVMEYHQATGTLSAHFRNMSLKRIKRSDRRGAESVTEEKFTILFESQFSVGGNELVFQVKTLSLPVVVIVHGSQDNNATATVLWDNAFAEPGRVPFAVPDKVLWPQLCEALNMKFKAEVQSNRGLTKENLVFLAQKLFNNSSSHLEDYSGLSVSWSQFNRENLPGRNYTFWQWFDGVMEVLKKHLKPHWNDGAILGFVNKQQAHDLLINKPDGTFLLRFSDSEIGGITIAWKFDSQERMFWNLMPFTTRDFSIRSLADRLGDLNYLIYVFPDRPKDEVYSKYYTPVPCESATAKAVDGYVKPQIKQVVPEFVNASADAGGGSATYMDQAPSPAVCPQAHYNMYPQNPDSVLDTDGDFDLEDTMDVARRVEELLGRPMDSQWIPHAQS", "type": "binding", "note": "Counter-ions that a name gives are not always drawn."}
{"molecule": "CC[C@@]1(O)C(=O)OCc2c1cc1n(c2=O)Cc2cc3c(CN(C)C)c(O)ccc3nc2-1", "note": "[compound 108, topotecan hydrochloride]", "values": [{"measurement": "Ki", "value": "1000 to 3000", "unit": "nM"}]}
